# Assay results published in patent US12233128B2, “Degraders that target ALK and therapeutic uses thereof” (DANA-FARBER CANCER INSTITUTE, INC., priority 2018, dated 2025).
# Tests used:
# Assay type in all cases: cell-based
# H3122 cells = assay: CellTiter-Glo cell viability, anti-proliferative activity in H3122 cells; details: 72 hours, FIG. 1A
# Protocol: (§1) CellTiter-Glo®: Cell viability was evaluated using the CellTiter-Glo® Luminescent Cell Viability Assay (Promega™) following the manufacturer's standards. 12-point dose titrations were tested in triplicate from 10000 nM to 0.056 nM over 72 hours. Anti-proliferative best fit EC50 values with 95% CI are shown as calculated by Graphpad Prism™ 7 software.
# [1] = tested on: EML4-ALK with secondary mutations L1196M, C1156Y, or G1202R; assay: CellTiter-Glo cell viability, ALK-positive Ba/F3 cells with EML4-ALK secondary mutations; details: 72 hours, FIG. 1A
# Protocol: as §1
# ALK = biological target: T1, ALK (Homo sapiens, UniProt Q9UM73); assay: Western blot, degradation of ALK in H3122 cells; details: for degradation of ALK: 16-hour treatment, 0.01-1 μM
# T1 construct: EML4 N-terminal fusion partner (human entry Q9HC35); endogenous in cells; host or cells: H3122; the other entry of the earlier key: EML4 (Q9HC35, Echinoderm microtubule-associated protein-like 4)
# T1 sequence (Q9UM73 with tags, fused parts or gaps): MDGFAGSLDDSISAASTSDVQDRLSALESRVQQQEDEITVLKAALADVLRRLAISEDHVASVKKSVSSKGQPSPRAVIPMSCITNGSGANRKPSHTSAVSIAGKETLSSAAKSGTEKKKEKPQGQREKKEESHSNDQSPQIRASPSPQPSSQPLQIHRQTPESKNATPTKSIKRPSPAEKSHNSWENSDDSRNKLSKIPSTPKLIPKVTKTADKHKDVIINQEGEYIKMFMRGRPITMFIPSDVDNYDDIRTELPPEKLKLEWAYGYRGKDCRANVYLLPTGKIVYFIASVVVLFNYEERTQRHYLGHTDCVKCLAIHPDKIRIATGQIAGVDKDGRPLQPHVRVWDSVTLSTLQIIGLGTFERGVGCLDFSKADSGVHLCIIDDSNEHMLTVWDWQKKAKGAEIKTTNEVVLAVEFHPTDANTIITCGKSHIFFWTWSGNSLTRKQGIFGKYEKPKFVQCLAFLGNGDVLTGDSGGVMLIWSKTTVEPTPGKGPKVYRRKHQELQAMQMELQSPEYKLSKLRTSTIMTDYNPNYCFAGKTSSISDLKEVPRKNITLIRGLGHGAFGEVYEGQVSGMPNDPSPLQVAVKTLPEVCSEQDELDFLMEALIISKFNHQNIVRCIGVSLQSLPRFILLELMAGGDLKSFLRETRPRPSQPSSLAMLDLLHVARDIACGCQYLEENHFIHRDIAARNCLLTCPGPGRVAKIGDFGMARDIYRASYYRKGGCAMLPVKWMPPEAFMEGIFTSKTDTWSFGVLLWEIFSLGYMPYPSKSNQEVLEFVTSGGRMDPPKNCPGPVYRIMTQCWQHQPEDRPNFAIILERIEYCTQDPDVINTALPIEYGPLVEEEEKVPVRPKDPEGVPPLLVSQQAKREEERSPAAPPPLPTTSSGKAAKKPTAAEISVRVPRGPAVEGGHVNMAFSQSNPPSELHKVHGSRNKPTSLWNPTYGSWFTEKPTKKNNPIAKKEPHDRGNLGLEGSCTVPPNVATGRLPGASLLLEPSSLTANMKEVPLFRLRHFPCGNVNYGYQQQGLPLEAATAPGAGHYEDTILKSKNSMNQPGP
# Protocol: (§2) Blotting: Cells were washed with PBS before being lysed with Cell Lysis Buffer (Cell Signaling Technology®) supplemented with protease and phosphatase inhibitor cocktails (Roche™) at 4° C. for 15 minutes. The cell lysate was vortexed every 5 minutes over a 30-minute period before being centrifuged at 14,000×g for 20 min at 4° C. Protein in cell lysate was quantified by BCA assay (Pierce™). Primary antibodies used in this study include ALK (Cell Signaling Technology®, D5F3), Aurora A (Cell Signaling Technology®, 1F8), FAK (PTK2) (Cell Signaling Technology®, #3285), and GAPDH (Cell Signaling Technology®, 14C10). Blot quantification was performed using Image Studio™ 4.0 software, normalizing to loading control (GAPDH).
# Aurora A = biological target: T2, Aurora A (Homo sapiens, UniProt O14965); assay: Western blot, off target degradation of Aurora A in H3122 cells; details: 16-hour treatment, 0.01-1 μM
# T2 construct: ALK and aurora A degradation in H3122 cells; endogenous in cells; host or cells: H3122
# T2 sequence (O14965 1-403): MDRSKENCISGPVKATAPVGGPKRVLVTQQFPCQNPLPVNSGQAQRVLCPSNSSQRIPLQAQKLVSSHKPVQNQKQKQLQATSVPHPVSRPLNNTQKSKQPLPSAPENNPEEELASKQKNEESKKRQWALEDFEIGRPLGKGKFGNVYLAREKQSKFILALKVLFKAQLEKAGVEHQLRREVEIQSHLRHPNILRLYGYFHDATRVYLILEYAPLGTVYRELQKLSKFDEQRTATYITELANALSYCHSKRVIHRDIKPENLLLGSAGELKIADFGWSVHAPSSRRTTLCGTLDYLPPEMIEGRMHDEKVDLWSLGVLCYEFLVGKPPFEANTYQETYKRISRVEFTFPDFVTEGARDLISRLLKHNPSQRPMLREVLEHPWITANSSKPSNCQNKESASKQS
# Protocol: as §2
# FAK (PTK2) = biological target: T3, FAK (PTK2) (Homo sapiens, UniProt Q05397); assay: Western blot, off target degradation of PTK2 in H3122 cells
# T3 construct: endogenous in cells; host or cells: H3122
# T3 sequence (Q05397 whole entry): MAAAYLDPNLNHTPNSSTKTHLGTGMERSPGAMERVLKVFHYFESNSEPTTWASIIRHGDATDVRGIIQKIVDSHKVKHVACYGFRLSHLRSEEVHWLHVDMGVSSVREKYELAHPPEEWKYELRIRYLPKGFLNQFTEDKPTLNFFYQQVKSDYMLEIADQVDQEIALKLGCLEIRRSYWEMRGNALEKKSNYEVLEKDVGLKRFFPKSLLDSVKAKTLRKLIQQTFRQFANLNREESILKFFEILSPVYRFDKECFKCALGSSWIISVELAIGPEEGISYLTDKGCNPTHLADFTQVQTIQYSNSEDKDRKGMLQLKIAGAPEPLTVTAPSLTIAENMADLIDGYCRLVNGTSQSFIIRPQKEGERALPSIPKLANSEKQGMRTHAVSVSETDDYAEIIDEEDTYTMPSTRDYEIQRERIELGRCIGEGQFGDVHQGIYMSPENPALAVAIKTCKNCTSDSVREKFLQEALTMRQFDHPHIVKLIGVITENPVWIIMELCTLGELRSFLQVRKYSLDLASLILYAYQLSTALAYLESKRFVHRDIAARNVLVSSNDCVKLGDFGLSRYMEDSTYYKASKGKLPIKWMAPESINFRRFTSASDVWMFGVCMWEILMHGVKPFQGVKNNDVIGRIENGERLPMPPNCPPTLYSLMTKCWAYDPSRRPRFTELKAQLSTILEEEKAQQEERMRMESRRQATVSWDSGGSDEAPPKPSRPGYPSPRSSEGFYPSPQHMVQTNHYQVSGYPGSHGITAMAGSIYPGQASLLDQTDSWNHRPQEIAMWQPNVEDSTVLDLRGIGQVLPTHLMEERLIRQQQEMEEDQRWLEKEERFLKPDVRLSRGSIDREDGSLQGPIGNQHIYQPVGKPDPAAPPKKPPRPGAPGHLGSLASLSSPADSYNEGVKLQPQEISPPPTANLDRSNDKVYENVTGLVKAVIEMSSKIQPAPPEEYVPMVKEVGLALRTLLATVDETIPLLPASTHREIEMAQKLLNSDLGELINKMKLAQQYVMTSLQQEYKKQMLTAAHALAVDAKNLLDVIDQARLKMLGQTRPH
# Protocol: as §2
# [2] = tested on: EML4-ALK expressing cell lines; assay: CellTiter-Glo cell viability, EML4-ALK expressing cell lines; details: 72 hours, FIG. 2A / 3A
# Protocol: as §1
# The experimental protocol was as in Example 15.
structure (smiles),measurement,setting,value
"CCc1cc2c(cc1N1CCC(N3CCN(C(=O)CCOCCOCCOCCOCCNc4cccc5c4C(=O)N(C4CCC(=O)NC4=O)C5=O)CC3)CC1)C(C)(C)c1[nH]c3cc(C#N)ccc3c1C2=O (stereo not shown) [Compound 1, 8-(4-(4-(1-((2-(2,6-dioxopiperidin-3-yl)-1,3-dioxoisoindolin-4-yl)amino)-3,6,9,12-tetraoxapentadecan-15-oyl)piperazin-1-yl)piperidin-1-yl)-9-ethyl-6,6-dimethyl-11-oxo-6,11-dihydro-5H-benzo[b]carbazole-3-carbonitrile]",anti-proliferative activity in H3122 cells,H3122 cells,comparable to compound 12
same,"activity against EML4-ALK with secondary mutations L1196M, C1156Y, or G1202R",[1],comparable to the parental inhibitor alectinib
same,degradation of ALK,ALK,ability to degrade ALK in a dose dependent manner
same,off target degradation of Aurora A,Aurora A,Off target degradation of Aurora A was also seen
same,off target degradation of PTK2,"FAK (PTK2); 16-hour treatment, 0.01-1 μM",very low
"CCc1cc2c(cc1N1CCC(N3CCN(C(=O)CCOCCOCCNc4cccc5c4C(=O)N(C4CCC(=O)NC4=O)C5=O)CC3)CC1)C(C)(C)c1[nH]c3cc(C#N)ccc3c1C2=O (stereo not shown) [Compound 2, 8-(4-(4-(3-(2-(2-((2-(2,6-dioxopiperidin-3-yl)-1,3-dioxoisoindolin-4-yl)amino)ethoxy)ethoxy)propanol)piperazin-1-yl)piperidin-1-yl)-9-ethyl-6,6-dimethyl-11-oxo-6,11-dihydro-5H-benzo[b]carbazole-3-carbonitrile]",anti-proliferative activity in H3122 cells,H3122 cells,comparable to compound 12
same,"activity against EML4-ALK with secondary mutations L1196M, C1156Y, or G1202R",[1],comparable to the parental inhibitor alectinib
same,degradation of ALK,ALK,ability to degrade ALK in a dose dependent manner
same,off target degradation of Aurora A,Aurora A,Off target degradation of Aurora A was also seen
same,off target degradation of PTK2,"FAK (PTK2); 16-hour treatment, 0.01-1 μM",very low
"CCc1cc2c(cc1-c1cnn(CC(=O)NCCOCCOCCNc3cccc4c3C(=O)N(C3CCC(=O)NC3=O)C4=O)c1)C(C)(C)c1[nH]c3cc(C#N)ccc3c1C2=O (stereo not shown) [Compound 4, 2-(4-(3-cyano-9-ethyl-6,6-dimethyl-11-oxo-6,11-dihydro-5H-benzo[b]carbazol-8-yl)-1H-pyrazol-1-yl)-N-(2-(2-(2-((2-(2,6-dioxopiperidin-3-yl)-1,3-dioxoisoindolin-4-yl)amino)ethoxy)ethoxy)ethyl)acetamide]",degradation of ALK,ALK,did not degrade ALK to a significant extent
"CCc1cc2c(cc1-c1cnn(CC(=O)NCCOCCOCCOCCOCCOCCOCCNc3cccc4c3C(=O)N(C3CCC(=O)NC3=O)C4=O)c1)C(C)(C)c1[nH]c3cc(C#N)ccc3c1C2=O (stereo not shown) [Compound 5, 2-(4-(3-cyano-9-ethyl-6,6-dimethyl-11-oxo-6,11-dihydro-5H-benzo[b]carbazol-8-yl)-1H-pyrazol-1-yl)-N-(20-((2-(2,6-dioxopiperidin-3-yl)-1,3-dioxoisoindolin-4-yl)amino)-3,6,9,12,15,18-hexaoxaicosyl)acetamide]",anti-proliferative activity in EML4-ALK expressing cell lines,[2],slightly better activity than the other members of this group
same,degradation of ALK,ALK,significant degradation of ALK
"CCc1cc2c(cc1-c1cnn(CC(=O)NCCOCCOCCOCCOCCNc3cccc4c3C(=O)N(C3CCC(=O)NC3=O)C4=O)c1)C(C)(C)c1[nH]c3cc(C#N)ccc3c1C2=O (stereo not shown) [Compound 6, 2-(4-(3-cyano-9-ethyl-6,6-dimethyl-11-oxo-6,11-dihydro-5H-benzo[b]carbazol-8-yl)-1H-pyrazol-1-yl)-N-(14-((2-(2,6-dioxopiperidin-3-yl)-1,3-dioxoisoindolin-4-yl)amino)-3,6,9,12-tetraoxatetradecyl)acetamide]",degradation of ALK,ALK,did not degrade ALK to a significant extent
"CCc1cc2c(cc1-c1cnn(CC(=O)N(C)CCOCCOCCOCCNc3cccc4c3C(=O)N(C3CCC(=O)NC3=O)C4=O)c1)C(C)(C)c1[nH]c3cc(C#N)ccc3c1C2=O (stereo not shown) [Compound 8, 2-(4-(3-cyano-9-ethyl-6,6-dimethyl-11-oxo-6,11-dihydro-5H-benzo[b]carbazol-8-yl)-1H-pyrazol-1-yl)-N-(2-(2-(2-(2-((2-(2,6-dioxopiperidin-3-yl)-1,3-dioxoisoindolin-4-yl)amino)ethoxy)ethoxy)ethoxy)ethyl)-N-methylacetamide]",off target degradation of Aurora A,Aurora A,off target degradation of aurora A was still seen at higher doses
same,degradation of PTK2,"FAK (PTK2); 16-hour treatment, 1 μM",slight degradation of PTK2
"Cc1cc(Nc2ncc(Cl)c(Nc3ccccc3S(=O)(=O)C(C)C)n2)c(OC(C)C)cc1C1CCN(CCOCCOCCNC(=O)CNc2cccc3c2C(=O)N(C2CCC(=O)NC2=O)C3=O)CC1 (stereo not shown) [Compound 12, N-(2-(2-(2-(4-(4-((5-Chloro-4-((2-(isopropylsulfonyl)phenyl)-amino)pyrimidin-2-yl)amino)-5-isopropoxy-2-methylphenyl)-piperidin-1yl)ethoxy)ethoxy)ethyl)-2-((2-(2,6-dioxopiperidin-3-yl)-1,3-dioxoisoindolin-4-yl)amino)acetamide]",time at which ALK degradation is seen,"ALK; time course, 100 nM",around 4 hours
same,time of maximum ALK degradation,"ALK; time course, 100 nM",around 8 hours
same,off target degradation of PTK2,"FAK (PTK2); time course, 100 nM",off target degradation activity against PTK2 that was seen
